Tested on: caspase-3
Assay: Caspase-3 activity in the liver tissue (DEVD-pNA substrate)
Format: in vivo, rat
Conditions: rats, AAP 700 mg/kg; control group 100%
Protocol: Accordingly, to confirm the cell apoptosis when generating the liver injury by AAP, the activity of the caspase-3 is measured. For this, the liver tissue is homogenized by the lysis buffer (25 mM HEPES, pH 7.5, 5 mM EDTA, 2 mM DTT, 0.1% CHAPS) containing the protease inhibitor and centrifuged by 14,000×g at 4° C. The protein concentration of the obtained upper solution is measured by a BCA protein assay kit. Thereafter, 80[…] of protein is inserted into the 96-well, then the DEVD-pNA substrate is inserted, thereafter, a reaction is progressed for 4 hours at 37° C. The absorbance is measured at 405 nm.

CC(=O)Nc1ccc(O)cc1 [AAP, Acetaminophen]
Activity of caspase-3 in the liver tissue: 143.38±10.25%
